From US12582624B2, “Co-crystal of gabapentin, ketoprofen and lysine, pharmaceutical compositions and their medical use” (DOMPÉ FARMACEUTICI S.P.A., priority 2020, dated 2026)

Tests used:
[1] = cited from earlier work
[2] = test system: carrageenan-induced rat paw edema; test: Carrageenan-induced rat paw edema test; format: in vivo
Method: Inflammatory pain in rats induced by carrageenan intraplantar injection Male Wistar rats (270-280 g) (Envigo, Italy), were housed 2-3 per cage under controlled illumination (12:12 h light:dark cycle; light on 06.00 h) and standard environmental conditions (room temperature 22±1° C., humidity 60±10%) for at least 1 week before experimental use. Rat chow and tap water were available ad libitum. The procedures were approved by the Animal Ethics Committee of University of Campania “Luigi Vanvitelli”. Animal care was in compliance with Italian Legislative Decree (D.L. 116/92) and European Commission Directive (O.J. of E.C. L358/1, 18/12/86) regulations on the protection of laboratory animals. All efforts were made to minimize animal suffering and the number of animals used.
Peripheral inflammatory pain was induced in the left hind paw of each animal by a single intraplantar injection of 1% A-carrageenan (100 μl for each rat in 0.9% NaCl). […] Edema was expressed as the mean increase in paw volume (ml) relative to control animals. The percentage inhibition of edema was calculated by the following equation: % inhibition of edema=(Vc−Vt/Vc)×100, where Vc is the edema volume in the control group and Vt is the edema volume in treated group.

in vivo = settings: male, Sprague Dawley, rat, po
Source text: Aim of the study was the determination of the brain penetration of Gabapentin in KLS-Gabapentin Co-crystal compared to the physical mixture of KLS and so Gabapentin and Gabapentin alone after administration in capsules in the rats.
Sprague Dawley male rat (body weights 310 gr at the time of the treatment) were used in this study. The animals were originally supplied by Harlan, Italy. Once receipt from the supplier, the animals were subjected to health examinations and acceptance. The animals were housed, in a group of three, in cages suitable for the species and were routinely kept in the following environment except for short periods of time where experimental procedures dictated otherwise. The animals were acclimatized to local housing conditions for approximately 5 days.
The experimental protocol consisted in the blood and brain tissue sampling on the animals according to the following Tables 12 and 13 and analysis of samples as described below.
Stock solutions of Ketoprofen and Gabapentin were prepared at 1 mg/mL in MeOH and a mix stock solution was prepared by dilution of the two mentioned before to reach a final concentration of 100 μg/mL of each analyte. Stock solutions of DF1681Y and Gabapentin Impurity A were prepared respectively at 2 mg/mL and 1 mg/mL in MeOH. A mixture of the two was prepared in ACN with a final so concentration of 5000 and 500 ng/mL respectively (mix IS). […]

[3] = cited from earlier work; remark: listed apart in the source
[4] = in vivo; cited from earlier work

| Compound | pKa [1] | Activity on inflammatory pain ([2]; Carrageenan inflammatory rat model) | Effect on carrageenan-evoked edema ([2]; FIGS. 13 and 15, oral, rat) | Kp at 2 h (in vivo) | Time to utmost level in plasma ([3]; after oral administration) [h] | Plasma protein binding ([3]; in vivo) | Excretion half-life ([3]; renal excretion) | Side effect: ataxia [4] [%] | Side effect: dizziness [4] [%] | Side effect: fatigue [4] [%] | Side effect: somnolence [4] [%] |
| --- | --- | --- | --- | --- | --- | --- | --- | --- | --- | --- | --- |
| CC(C(=O)O)c1cccc(C(=O)c2ccccc2)c1 (racemic) [Ketoprofen, (RS)-2-(3-benzoylphenyl)-propionic acid] | 4.08 | – | – | – | – | – | – | – | – | – | – |
| NCC1(CC(=O)O)CCCCC1 [Gabapentin] | – | little active | less effective | 0.378 | 3 to 4 | does not attach to plasma proteins | roughly 6 hours | 13 | 18 | 11 | 20 |
